The values below come from US6900315B2, “2-amino-9H-purin-9-yl compounds and methods for inhibiting/treating HIV infections and AIDS related symptoms” (Yale University, priority 2001, dated 2005).

Read-outs that look alike come from different tables or passages of the source.

In data set [1] the target is T1, mitochondrial polymerase gamma (Homo sapiens, UniProt P54098).
T1 sequence (P54098 1-1239): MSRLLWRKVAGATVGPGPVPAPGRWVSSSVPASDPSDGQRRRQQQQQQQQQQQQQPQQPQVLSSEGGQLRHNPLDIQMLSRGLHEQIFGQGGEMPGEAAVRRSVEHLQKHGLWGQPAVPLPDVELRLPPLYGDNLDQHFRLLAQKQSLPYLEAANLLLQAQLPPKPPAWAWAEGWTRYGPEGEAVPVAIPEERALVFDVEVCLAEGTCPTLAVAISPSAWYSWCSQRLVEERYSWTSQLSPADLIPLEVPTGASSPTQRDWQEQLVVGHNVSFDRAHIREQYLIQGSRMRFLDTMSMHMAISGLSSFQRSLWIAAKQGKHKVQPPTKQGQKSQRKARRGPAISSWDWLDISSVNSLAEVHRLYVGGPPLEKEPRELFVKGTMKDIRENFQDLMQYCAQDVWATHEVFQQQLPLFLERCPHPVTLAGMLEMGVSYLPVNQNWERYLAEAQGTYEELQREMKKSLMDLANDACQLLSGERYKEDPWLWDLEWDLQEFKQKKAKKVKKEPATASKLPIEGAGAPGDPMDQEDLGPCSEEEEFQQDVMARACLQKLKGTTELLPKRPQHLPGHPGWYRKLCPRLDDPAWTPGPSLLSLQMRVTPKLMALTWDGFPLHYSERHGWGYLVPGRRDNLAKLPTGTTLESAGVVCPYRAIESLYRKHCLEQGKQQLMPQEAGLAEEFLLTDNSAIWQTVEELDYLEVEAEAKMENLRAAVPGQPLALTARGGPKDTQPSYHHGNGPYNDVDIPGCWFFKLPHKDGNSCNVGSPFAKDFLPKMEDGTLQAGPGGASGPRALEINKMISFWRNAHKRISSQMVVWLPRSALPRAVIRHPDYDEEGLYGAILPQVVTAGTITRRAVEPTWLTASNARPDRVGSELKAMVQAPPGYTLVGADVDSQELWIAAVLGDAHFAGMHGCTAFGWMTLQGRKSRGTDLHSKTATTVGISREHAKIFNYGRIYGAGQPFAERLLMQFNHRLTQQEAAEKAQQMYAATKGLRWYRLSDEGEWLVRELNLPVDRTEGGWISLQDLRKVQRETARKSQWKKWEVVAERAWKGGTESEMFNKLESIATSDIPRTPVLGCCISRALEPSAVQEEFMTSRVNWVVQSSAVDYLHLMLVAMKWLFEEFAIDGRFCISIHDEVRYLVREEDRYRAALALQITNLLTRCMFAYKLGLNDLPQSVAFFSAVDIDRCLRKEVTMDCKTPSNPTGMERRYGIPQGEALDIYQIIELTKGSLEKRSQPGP
To be noted: cited from earlier work.

For data set [2], the target named is T1, mitochondrial polymerase gamma. As to conditions: exonuclease; from Johnson et al.; cited from earlier work.
In data set [3] the target is T2, wild type HIV-1 reverse transcriptase (Human immunodeficiency virus type 1 group M subtype B, UniProt P04585).
T2 construct: a mixture of 100 nM HIV-1 reverse transcriptase and 300 nM primer/template
The data set is described as follows: Kinetics of nucleotide incorporation by wild type HIV-1 reverse transcriptase. Type of data set: biochemical. To be noted: RT WT. How it is done:
Continued research on the guanosine prodrug approach for making D4G a viable anti-HIV agent has yielded a number of new findings. In the present example, enzyme kinetics for the incorporation of the active metabolites of guanosine prodrugs with wild type HIV-1 reverse transcriptase was determined. In this experiment, a mixture of 100 nM HIV-1 reverse transcriptase and 300 nM primer/template in which the correct base incorporation is a guanine nucleotide was rapidly mixed with nucleotide in the presence of 50 mM Tris, 50 mM NaCl and 10 mM MgCl2 for a set amount of time and then the reaction was stopped by the addition 300 mM of EDTA.

Data set [4] has as its target T1, mitochondrial polymerase gamma. The data set is described as follows: Nucleotide incorporation by mitochondrial polymerase gamma into an elongating DNA strand. Type of data set: biochemical. As to conditions: mitochondrial polymerase gamma, incorporation.
Data set [5] has as its target T2, wild type HIV-1 reverse transcriptase. To be noted: from Ray and Anderson or Furman et al., cited from earlier work.
Data set [6] deals with T1, mitochondrial polymerase gamma. The data set is described as follows: Exonuclease removal from chain terminated primer template by mitochondrial polymerase gamma. Type of data set: biochemical.
Setting [7] is: mitochondrial polymerase gamma, from Johnson et al.
[8] abbreviates: Table 4, primer/template DNA/DNA.
[9] abbreviates: Table 4, primer/template DNA/RNA.

Take `Cc1cn([C@H]2C=C[C@@H](COP(=O)(O)OP(=O)(O)OP(=O)(O)O)O2)c(=O)[nH]c1=O` [D4TTP]: the “Toxicity Index” value in data set [1] is given as 3,120. In addition, in data set [1] (setting [7]), the Discrimination was 7.4, the equilibrium dissociation constant (Kd) (commonly the concentration at which binding is half-saturated) was 0.045 ± 0.0075 µM, the kpol is 0.24 ± 0.01 s⁻¹ and the “kpol/Kd” value is 5.4e+06 ± 930000 M⁻¹ s⁻¹. Also, the kexo in data set [2] is 0.0004 s⁻¹.
In data set [3] (setting [8]), `Nc1nc2c(ncn2[C@H]2C[C@H](O)[C@@H](COP(=O)(O)OP(=O)(O)OP(=O)(O)O)O2)c(=O)[nH]1` [DGTP] had an Efficiency of 1.7 ± 0.3 s^−1μM^−1, a Kd of 14 ± 2 µM and a kpol of 24 ± 1 s⁻¹. In data set [3] (setting [9]), this compound showed an Efficiency of 3.1 ± 0.6 s^−1μM^−1, a Kd of 11 ± 2 µM and a kpol of 35 ± 2 s⁻¹. Moreover, in data set [4], binding was put at a Kd of 1.4 ± 0.3 µM, the kpol was determined as 175 ± 10 s⁻¹ and the “kpol/Kd” value is 1.3e+08 ± 3e+07 M⁻¹ s⁻¹. In data set [5] (Table 3, substrate DNA/DNA), the Kd is 14 ± 2 µM, the “Selectivity = (kpol/Kd)dGTP/(kpol/Kd)analog” value is listed as 1 and the kpol was 24 ± 1 s⁻¹. In addition, in data set [5] (Table 3, substrate DNA/RNA), the Kd was 11 ± 2 µM, the “Selectivity = (kpol/Kd)dGTP/(kpol/Kd)analog” value is given as 1 and the kpol was 35 ± 2 s⁻¹. Also, the kexo in data set [6] is 0.019 ± 0.0019 s⁻¹.
